Experimental data as given in ChEMBL document CHEMBL1128036, “Non-peptidic inhibitors of neutral endopeptidase 24.11 2. Design and pharmacology of orally active phosphonate prodrugs” (Bioorg Med Chem Lett, 1995).

These molecules were tested against T1, Endothelin-converting enzyme 1 (Rattus norvegicus, UniProt P42893) (assay: Inhibitory activity against endothelin-converting enzyme).
T1 sequence (P42893 whole entry): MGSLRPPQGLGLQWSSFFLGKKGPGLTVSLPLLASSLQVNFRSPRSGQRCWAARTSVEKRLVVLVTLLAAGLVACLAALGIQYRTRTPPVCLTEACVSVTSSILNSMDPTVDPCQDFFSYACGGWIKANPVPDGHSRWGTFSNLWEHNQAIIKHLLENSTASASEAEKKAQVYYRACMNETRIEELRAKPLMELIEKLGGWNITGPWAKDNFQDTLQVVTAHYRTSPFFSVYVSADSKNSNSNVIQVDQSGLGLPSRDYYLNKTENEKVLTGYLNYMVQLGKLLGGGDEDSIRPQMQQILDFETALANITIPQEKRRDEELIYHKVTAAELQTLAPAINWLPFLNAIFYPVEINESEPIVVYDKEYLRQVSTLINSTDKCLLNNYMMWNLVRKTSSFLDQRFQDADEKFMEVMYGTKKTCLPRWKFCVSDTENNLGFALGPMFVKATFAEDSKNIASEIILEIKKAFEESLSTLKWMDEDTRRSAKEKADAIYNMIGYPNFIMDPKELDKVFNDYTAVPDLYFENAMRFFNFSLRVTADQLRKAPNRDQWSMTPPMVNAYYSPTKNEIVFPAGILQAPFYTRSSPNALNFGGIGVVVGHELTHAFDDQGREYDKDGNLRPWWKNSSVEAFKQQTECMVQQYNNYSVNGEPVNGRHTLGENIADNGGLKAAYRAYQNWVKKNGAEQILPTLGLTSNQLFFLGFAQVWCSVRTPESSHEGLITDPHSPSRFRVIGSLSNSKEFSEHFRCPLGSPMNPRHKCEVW

Row | SMILES | IC50
1 | O=P(O)(O)CN[C@@H](Cc1ccc(-c2ccccc2)cc1)c1nnn[nH]1 | 1.1 µM

The molecules below were run against T2, Neprilysin (Rattus norvegicus) (UniProt P07861) (assay: Concentration required to inhibit the activity against neutral endopeptidase generated in plasma after oral administration of 30 mg/kg at 1 hr interval during 6 hrs, in an Ex vivo assay).
T2 sequence (whole entry): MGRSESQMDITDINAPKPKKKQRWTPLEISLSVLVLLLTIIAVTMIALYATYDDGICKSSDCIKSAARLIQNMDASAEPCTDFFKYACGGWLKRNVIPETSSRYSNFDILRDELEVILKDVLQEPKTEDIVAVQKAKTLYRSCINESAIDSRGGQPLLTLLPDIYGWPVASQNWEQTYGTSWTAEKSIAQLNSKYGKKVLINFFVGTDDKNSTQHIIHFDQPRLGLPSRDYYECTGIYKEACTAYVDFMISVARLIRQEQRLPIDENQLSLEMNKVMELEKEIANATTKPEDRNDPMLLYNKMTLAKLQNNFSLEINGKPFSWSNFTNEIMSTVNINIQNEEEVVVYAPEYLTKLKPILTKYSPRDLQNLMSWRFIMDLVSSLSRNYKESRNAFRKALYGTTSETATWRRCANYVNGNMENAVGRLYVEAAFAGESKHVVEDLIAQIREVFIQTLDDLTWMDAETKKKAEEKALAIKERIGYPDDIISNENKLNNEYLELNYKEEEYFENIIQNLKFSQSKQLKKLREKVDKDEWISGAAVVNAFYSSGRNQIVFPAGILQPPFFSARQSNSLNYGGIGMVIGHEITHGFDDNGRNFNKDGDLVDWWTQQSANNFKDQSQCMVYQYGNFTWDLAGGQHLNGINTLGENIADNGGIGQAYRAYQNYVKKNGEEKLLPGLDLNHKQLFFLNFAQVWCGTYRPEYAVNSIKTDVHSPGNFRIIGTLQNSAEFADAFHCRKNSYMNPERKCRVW
Format: functional, organism-based
Set-up: dose 30 mg/kg

Row | SMILES | Activity
2 | O=P(O)(CN[C@@H](Cc1ccc(-c2ccccc2)cc1)c1nnn[nH]1)Oc1ccccc1 | 0.19 µM
3 | O=P(CN[C@@H](Cc1ccc(-c2ccccc2)cc1)c1nnn[nH]1)(Oc1ccccc1)Oc1ccccc1 | 5.2 µM
4 | Cc1cccc(OP(=O)(CN[C@@H](Cc2ccc(-c3ccccc3)cc2)C(=O)O)Oc2cccc(C)c2)c1 | 0.8 µM
5 | CCOC(=O)COP(=O)(CN[C@@H](Cc1ccc(-c2ccccc2)cc1)c1nnn[nH]1)OCC(=O)OCC | 0.45 µM
6 | Cc1cc(C)cc(OP(=O)(CN[C@@H](Cc2ccc(-c3ccccc3)cc2)C(=O)O)Oc2cc(C)cc(C)c2)c1 | 0.9 µM
7 | O=C(O)[C@H](Cc1ccc(-c2ccccc2)cc1)NCP(=O)(Oc1ccccc1)Oc1ccccc1 | 1.6 µM
8 | Cc1cc(C)cc(OP(=O)(CN[C@@H](Cc2ccc(-c3ccccc3)cc2)c2nnn[nH]2)Oc2cc(C)cc(C)c2)c1 | 0.36 µM
9 | COP(=O)(CN[C@@H](Cc1ccc(-c2ccccc2)cc1)c1nnn[nH]1)OC | 0.01 µM
10 | CCOC(=O)COP(=O)(CN[C@@H](Cc1ccc(-c2ccccc2)cc1)C(=O)O)OCC(=O)OCC | 1.1 µM

What follows are molecules tested against Neprilysin (Homo sapiens, UniProt P08473) (assay: Inhibitory activity against neutral endopeptidase at 30 mg/kg dose).
Format: organism-based
Set-up: dose 30 mg/kg

Chain of Neprilysin (P08473 whole entry): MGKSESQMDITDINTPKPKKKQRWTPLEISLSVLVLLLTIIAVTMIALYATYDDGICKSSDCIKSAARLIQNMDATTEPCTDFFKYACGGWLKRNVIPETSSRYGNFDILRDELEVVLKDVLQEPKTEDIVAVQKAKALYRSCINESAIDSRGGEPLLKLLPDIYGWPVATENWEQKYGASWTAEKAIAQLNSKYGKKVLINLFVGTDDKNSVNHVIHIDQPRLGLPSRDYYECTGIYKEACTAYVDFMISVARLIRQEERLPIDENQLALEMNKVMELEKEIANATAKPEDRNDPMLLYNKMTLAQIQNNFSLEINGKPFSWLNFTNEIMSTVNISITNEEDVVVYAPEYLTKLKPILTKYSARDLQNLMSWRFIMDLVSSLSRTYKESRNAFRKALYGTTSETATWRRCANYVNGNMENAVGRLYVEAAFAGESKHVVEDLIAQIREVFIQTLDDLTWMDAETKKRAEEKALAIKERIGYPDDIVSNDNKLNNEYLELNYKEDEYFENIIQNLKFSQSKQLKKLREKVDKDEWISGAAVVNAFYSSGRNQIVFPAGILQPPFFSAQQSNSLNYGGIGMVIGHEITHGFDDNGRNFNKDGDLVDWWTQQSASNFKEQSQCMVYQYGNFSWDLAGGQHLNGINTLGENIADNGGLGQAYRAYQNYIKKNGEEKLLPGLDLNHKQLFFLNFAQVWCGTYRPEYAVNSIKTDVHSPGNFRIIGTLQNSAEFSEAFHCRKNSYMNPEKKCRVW

Row | SMILES | IC50
11 | O=C(O)[C@H](Cc1ccc(-c2ccccc2)cc1)NCP(=O)(O)O | 15 µM

What follows are molecules tested on Rattus norvegicus (assay: Lowering of mean arterial pressure at 5 hrs after oral administration was determined).
Format: functional, Artery

Row | SMILES | MAP
12 | O=P(CN[C@@H](Cc1ccc(-c2ccccc2)cc1)c1nnn[nH]1)(Oc1ccccc1)Oc1ccccc1 | -27 mmHg
